According to patent US20240325370A1, “THERAPEUTIC REGIMENS OF A DEGRADER OF BRD9” (FOGHORN THERAPEUTICS INC., priority 2021, published 2024):
“Also recorded” adds a separate entry of the source.

Experiments:
[1] = system: ASKA synovial sarcoma xenografts; test: ASKA synovial sarcoma xenograft efficacy; format: in vivo; details: for Tumor Growth (%) on Day 21 / Tumor Size (mm^3) on Day 21: Mean ± SEM; for T/C (%) / TGI (%): Day 21
Description: A study was conducted to examine anti-tumor efficacy of compound S-D1 with BIW IV dosing of the racemate, compound D1, for 3 weeks utilizing a second xenograft model of human synovial sarcoma, ASKA. Vehicle (0.5% HPMC, 0.1% Tween 80 in water, pH 1.3 to 1.5), administered orally, was used as the general comparator for all test article responses (i.e., tumor growth and body weight changes). Pazopanib and ifosfamide, two agents currently used in clinic to treat synovial sarcoma patients were compared to compound D1 treatment alone. Pazopanib was administered orally at 40 mg/kg QD and ifosfamide was given IV at 80 mg/kg QD for the first 3 days (Days 0, 1, and 2) in the 3-week treatment period, mimicking the equivalent treatment regimens for both drugs in human patients.

BRD9 [2] = biological target: T1, BRD9 (Homo sapiens, UniProt Q9H8M2); test: Drug washout experiments in SYO-1, ASKA and OCI-AML2 cell lines; details: followed by washout
T1 sequence (Q9H8M2 1-597): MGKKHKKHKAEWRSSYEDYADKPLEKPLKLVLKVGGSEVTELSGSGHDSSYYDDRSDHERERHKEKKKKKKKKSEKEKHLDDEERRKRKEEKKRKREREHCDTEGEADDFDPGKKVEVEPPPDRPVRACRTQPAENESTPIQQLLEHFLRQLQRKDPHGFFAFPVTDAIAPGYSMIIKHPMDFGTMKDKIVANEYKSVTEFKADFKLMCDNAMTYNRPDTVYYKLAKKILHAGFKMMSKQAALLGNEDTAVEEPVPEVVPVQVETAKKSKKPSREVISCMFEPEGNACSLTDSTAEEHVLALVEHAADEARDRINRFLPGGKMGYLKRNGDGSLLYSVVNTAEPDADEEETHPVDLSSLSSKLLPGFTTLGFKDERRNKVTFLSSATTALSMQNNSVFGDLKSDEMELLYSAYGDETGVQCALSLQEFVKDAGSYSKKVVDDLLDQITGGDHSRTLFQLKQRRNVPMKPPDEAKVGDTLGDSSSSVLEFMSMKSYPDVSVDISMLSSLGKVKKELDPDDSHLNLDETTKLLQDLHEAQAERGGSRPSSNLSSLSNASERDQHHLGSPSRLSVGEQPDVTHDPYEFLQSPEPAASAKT
Description: Drug Washout Experiments in SYO-1, ASKA, and OCI-AML2 Cell Lines. To assess the duration of BRD9 protein degradation and recovery post-drug washout, extensive washout experiments were conducted in three cell lines and BRD9 protein levels were assessed through western blot analyses. SYO-1 and ASKA are adherent synovial sarcoma cell lines. OCI-AML2 is an acute myeloid leukemia suspension cell line.
Adherent cells, SYO-1 and ASKA, grown in flasks to log phase growth, were washed with PBS and dissociated by adding TrypLE™ Express.
SYO-1 cells counted and seeded into 6-well plates at a density of 0.5×10^6 cells per well in 2 mL cell culture medium. Two wells were allocated per sample. Plates were incubated at 37° C. with 5% CO2 overnight. […] After 6 hours of incubation, 1×10^6 cells or 2 wells per treated group were harvested and frozen down at −80° C. for the 6-hour treatment sample. The remainder of the compound treated wells were washed four times by replacing all the drug-treated media with an equal volume of fresh media. After the final wash step, cells were incubated in 2 mL fresh media at 37° C. with 5% CO2 for the time points indicated. Washout steps were not performed on wells treated with 0.1% DMSO and cells were harvested at the time indicated.
Two wells were allocated per sample. Plates were incubated at 37° C. with 5% CO2 overnight. […]

[3] = system: SYO-1 synovial sarcoma xenograft; test: Intermittent dosing schedules, IP, SYO-1 synovial sarcoma xenograft efficacy; format: in vivo, mice; details: for Day 21 Tumor Growth (%) / Day 21 Tumor Size (mm^3): SYO-1 tumor-bearing NOD SCID mice, Mean ± SEM
Excerpt: The racemate, compound D1, which consists of ˜50% compound S-D1, was utilized in an SYO-1 (a synovial sarcoma xenograft) model to explore if similar efficacy is achievable with an intermittent dosing schedule. Due to technical feasibility and animal-welfare considerations, intraperitoneal (IP) administration was chosen over the IV route. […] Groups of female SYO-1 tumor-bearing NOD SCID mice (n=8/group) were intraperitoneally administered with vehicle or compound D1 for 21 days. Compound D1 was formulated as a suspension in 10% DMSO/40% PEG400/50% deionized water, volume/volume (v/v). […] To determine the level of modulation of BRD9 after each regimen, mice (n=4 mice/time-point) were euthanized and tumor samples were collected at different timepoints post-last dose (Day 21). […] BRD9 levels were assessed at 24, 72 and 168 hours (expected time points of trough plasma concentrations) for QD, BIW, and QW regimens respectively, as indicated in Table 8. Samples were analyzed using Western blot method.

endogenous BRD9 = biological target: T2, endogenous BRD9 (Homo sapiens, UniProt Q9H8M2); test: MSD assay of endogenous BRD9 degradation in synovial sarcoma cell lines; format: cell-based; details: 6 hours, estimated from racemate compound D1 (about 50% active enantiomer)
T2 sequence (Q9H8M2 1-597): T1 sequence (Q9H8M2 1-597)

[4] = Plasma exposure of compound S-D1 after the last dose; format: in vivo, mice
Description: The objective of this study was to provide proof-of-concept of anti-tumor efficacy with intermittent dosing schedules for compound S-D1 by IV administration. Groups of female SYO-1 tumor-bearing NOD SCID mice (n=10/group) were dosed IV with vehicle, compound D1 or compound S-D1 for 24 days according to treatments and dosing schedules shown in Table 10. Compound D1 was formulated in 10% DMSO/40% PEG400/50% water and compound S-D1 was formulated in 20% SBECD in 5 mM citrate buffer, final pH was adjusted to 5 with 1 N NaOH. For the compound S-D1 treatment groups, plasma samples were collected at designated time points following the last dosing. Plasma samples were acidified to stabilize the compound right after collection and analyzed for compound S-D1 concentrations.

BRD9 [5] = biological target: T1, BRD9; test: Drug washout and competition experiments in SYO-1 cells; details: two washouts, five washes per washout step
Description: Drug Washout and Competition Experiments in SYO-1 Cells.
SYO-1 cells grown in flasks to log phase growth were washed with PBS and dissociated by adding TrypLE™ Express. The collected cells were resuspended in DMEM (high glucose, with GlutaMAX™ supplement) with 10% FBS.
Cells were collected using fresh media and measured for cell number. 1×10^6 cells were harvested for the 24-hour treatment sample and frozen down at −80° C. The remainder of the treated cells were washed five times with 10 ml fresh media, through sequential rounds of resuspension and centrifugation at 1,000 rpm for 5 minutes.
Another 1×10^6 cells were harvested for the 24-hour post-washout sample and frozen down at −80° C. The remainder of the cells were split off evenly into two separate 100 mm petri dishes and resuspended in 10 ml culture medium in each plate.
The remaining cells of each treatment group were washed five times with 10 mL fresh media. Cells were then seeded evenly into 6-well plates in 2 ml fresh media per well. 2 wells were allocated per collection time point.

[6] = Interconversion between Enantiomer 1 and Enantiomer 2 in cell medium; format: physicochemical; details: Enantiomer 2 dosing, cell medium 37° C.; for Mean peak area ratio of Enantiomer 1 over Enantiomer 2 peak area ratio: 0.2 µM
Description: For the assessment of interconversion between Enantiomer 1 and Enantiomer 2 in cell medium, the following test was performed. […] At designated time point, aliquot (50 μL) was taken and processed by the addition of 150 μL of acetonitrile containing 0.1% formic acid and internal standard for LC/MS-MS analysis. Peak areas of both Enantiomer 1 and Enantiomer 2 were determined for each sample using a chiral specific analytical method.

[7] = 0.1 mg/kg BIW IV 3 weeks, ASKA xenograft
[8] = 0.5 mg/kg BIW IV 3 weeks, ASKA xenograft
[9] = 2 mg/kg BIW IV 3 weeks, ASKA xenograft
[10] = 0.5 or 2 mg/kg BIW IV, ASKA xenograft
[11] = 0.1 mg/kg QD × 21 days IP, Day 21
[12] = 0.35 mg/kg BIW × 3 weeks IP, Day 21
[13] = 0.5 mg/kg QD × 21 days IP, Day 21
[14] = 0.7 mg/kg QW × 3 weeks IP, Day 21
[15] = 3.5 mg/kg QW × 3 weeks IP, Day 21

COc1cc(-c2cn(C)c(=O)c3cnc(N4CCC4)cc23)cc(OC)c1CN1CCC(CN2CCC3(CC2)CN(c2ccc4c(c2)C(=O)N(C2CCC(=O)NC2=O)C4)C3)CC1 (racemic) [Compound D1, 3-[6-(7-[[1-([4-[6-(azetidin-1-yl)-2-methyl-1-oxo-2,7-naphthyridin-4-yl]-2,6-dimethoxyphenyl]methyl)piperidin-4-yl]methyl]-2,7-diazaspiro[3.5]nonan-2-yl)-1-oxo-3H-isoindol-2-yl]piperidine-2,6-dione]
Tumor Growth (%) on Day 21 [1, 7]: 440 ± 46% | Tumor Size (mm^3) on Day 21 [1, 7]: 634 ± 82 mm^3 | T/C (%) ([1]; 0.1 mg/kg BIW IV 3 weeks): 36.1% | TGI (%) ([1]; 0.1 mg/kg BIW IV 3 weeks): 63.9% | Tumor Growth (%) on Day 21 [1, 8]: 121 ± 13% | Tumor Size (mm^3) on Day 21 [1, 8]: 175 ± 26 mm^3 | T/C (%) ([1]; 0.5 mg/kg BIW IV 3 weeks): 9.9% | TGI (%) ([1]; 0.5 mg/kg BIW IV 3 weeks): 90.1% | Tumor Growth (%) on Day 21 [1, 9]: 92 ± 6% | Tumor Size (mm^3) on Day 21 [1, 9]: 130 ± 10 mm^3 | T/C (%) ([1]; 2 mg/kg BIW IV 3 weeks): 7.6% | TGI (%) ([1]; 2 mg/kg BIW IV 3 weeks): 92.4% | tumor response [1, 10]: Tumor stasis | tumor stasis continued after the cessation of dosing [1, 10]: approximately 15 days | continued BRD9 depletion after washout (BRD9 [2]; ASKA and OCI-AML2 cells, 15.6 nM for 6 h): reproduced | BRD9 depletion after washout (BRD9 [2]; SYO-1 cells treated with 15.6 nM for 6 h): continued depletion of BRD9 up to 7 days | T/C (%) [3, 11]: 25.4% | TGI (%) [3, 11]: 74.6% | Day 21 Tumor Growth (%) ([3]; 0.1 mg/kg QD × 21 days IP): 535 ± 39% | Day 21 Tumor Size (mm^3) ([3]; 0.1 mg/kg QD × 21 days IP): 552 ± 59 mm^3 | T/C (%) [3, 12]: 49.0% | TGI (%) [3, 12]: 51.0% | Day 21 Tumor Growth (%) ([3]; 0.35 mg/kg BIW × 3 weeks IP): 1033 ± 64% | Day 21 Tumor Size (mm^3) ([3]; 0.35 mg/kg BIW × 3 weeks IP): 1179 ± 117 mm^3 | T/C (%) [3, 13]: 13.4% | TGI (%) [3, 13]: 86.6% | Day 21 Tumor Growth (%) ([3]; 0.5 mg/kg QD × 21 days IP): 284 ± 21% | Day 21 Tumor Size (mm^3) ([3]; 0.5 mg/kg QD × 21 days IP): 341 ± 57 mm^3 | T/C (%) [3, 14]: 45.1% | TGI (%) [3, 14]: 54.9% | Day 21 Tumor Growth (%) ([3]; 0.7 mg/kg QW × 3 weeks IP): 951 ± 115% | Day 21 Tumor Size (mm^3) ([3]; 0.7 mg/kg QW × 3 weeks IP): 1065 ± 107 mm^3 | T/C (%) [3, 15]: 18.0% | TGI (%) [3, 15]: 82.0% | Day 21 Tumor Growth (%) ([3]; 3.5 mg/kg QW × 3 weeks IP): 379 ± 43% | Day 21 Tumor Size (mm^3) ([3]; 3.5 mg/kg QW × 3 weeks IP): 449 ± 69 mm^3 | TGI compared to the vehicle control ([3]; all dosing regimens, IP, Day 21): significant TGI

COc1cc(-c2cn(C)c(=O)c3cnc(N4CCC4)cc23)cc(OC)c1CN1CCC(CN2CCC3(CC2)CN(c2ccc4c(c2)C(=O)N([C@H]2CCC(=O)NC2=O)C4)C3)CC1 (single isomer, unassigned) [Compound S-D1]
DC50 (endogenous BRD9): 0.025 to 0.1 nM | exposure in plasma versus dose ([4]; from 0.05 to […] IV): increased more than proportionally to dose | exposure in plasma versus dose ([4]; from 0.25 to 2 mg/kg IV): slightly less than proportionally to dose | BRD9 degradation after second washout (removal of binding competitors) (BRD9 [5]): retention of the BRD9-suppressive activity; also recorded: degraded again | Mean peak area ratio of Enantiomer 1 over Enantiomer 2 peak area ratio ([6]; 0 h): 0.01 | Mean peak area ratio of Enantiomer 1 over Enantiomer 2 peak area ratio ([6]; 0.5 h): 0.06 | Mean peak area ratio of Enantiomer 1 over Enantiomer 2 peak area ratio ([6]; 2 h): 0.22 | Mean peak area ratio of Enantiomer 1 over Enantiomer 2 peak area ratio ([6]; 6 h): 0.60 | % Enantiomer 2 ([6]; 0 h): 99% | % Enantiomer 2 ([6]; 0.5 h): 95% | % Enantiomer 2 ([6]; 2 h): 82% | % Enantiomer 2 ([6]; 6 h): 63%
